Among the data in patent US7105527B2, “N4-acylcytosine nucleosides for treatment of viral infections” (priority 2001, dated 2006) are IC50 and EC90 values, retold here.

Holding throughout (type): cell-based
The test system of series [1] is CEM (human lymphoblastoid) cells. Put plainly: Cytotoxicity assay in CEM cells. Here is the method: (§1) The toxicity of the compounds was assessed in Vero, human PBM, CEM (human lymphoblastoid), MT-2, and HepG2 cells, as described previously (Schinazi […]., Cannon D. L., Xie […]., Smith […]. […] Cycloheximide was included as positive cytotoxic control, and untreated cells exposed to solvent were included as negative controls. The cytotoxicity IC50 was obtained from the concentration-response curve using the median effective method described previously (Chou […]. […] Belen'kii M. S. & Schinazi R. F.

The test system of series [2] is HepG2 cells. Put plainly: Cytotoxicity assay in HepG2 cells. Here is the method: as §1
Series [3] concerns HIV-1LAl. In words: Anti-HIV (in PBM cells) assay, reverse transcriptase readout. Here is the method:
Anti-HIV-1 activity of the compounds was determined in human peripheral blood mononuclear (PBM) cells as described previously (Schinazi […]., Cannon D., Mathis R., Lloyd R. M. Jr., […]., St. Clair M., Wilson J., Furman P. A., Painter G., Choi […]. Antimicrob. Agents Chemother. 1992, 36, 2423; Schinazi […]., Cannon D., Xie […]., Smith G., Hahn E. Antimicrob. Agents Chemother. 1990, 34, 1061). Stock solutions ([…]) of the compounds were prepared in sterile DMSO and then diluted to the desired concentration in growth medium. […] Virus obtained from the cell supernatant was quantified on day 6 after infection by a reverse transcriptase assay using (rA)n.(dT)12.18 as template-primer. […] AZT was included as positive control. The antiviral EC50 and EC90 were obtained from the concentration-response curve using the median effective method described previously (Chou […]. Enzyme Regul. 1984, 22, 27-55; Belen'kii M. S. & Schinazi R. F. Antiviral Res. 1994, 25, 1-11).

Series [4] has as its system human PBM cells. In words: Cytotoxicity assay in PBM cells. Here is the method: as §1
In series [5] the test system is MT-2 cells. In words: Cytotoxicity assay in MT-2 cells. Here is the method:
as §1

The subject of series [6] is Vero cells. In words: Cytotoxicity assay in Vero cells. How it is done: as §1
The test system of series [7] is HIV-1RF. In words: Anti-HIV (in MT-2 cells) assay, viral RNA accumulation. Conditions: EC90, MT-2 cells, read-out: Anti-HIV-1 activity in different cells (EC90, μM) MT-2. Here is the method:
In a second antiviral testing system, the potency of the compounds was determined by measurement of viral RNA accumulation in HIV-1RF infected MT-2 cells (Bacheler L T, Paul M, Otto M J, Jadhav P K, Stone B A & Miller J A (1994) An assay for HIV RNIn infected cell lysates, and its use for rapid evaluation of antiviral efficacy. Antivir. Chem. Chemother. 5:111–121). The virus titer was established to determine the dilution producing 15 to 30 ng/RNA per well of HIV RNIn 3 days of infection. HIV-1 RNA was quantified using biotinylated capture and alkaline phosphatase-derivatized reporter oligonucleotides as described previously (Charvet A-S, Camplo M, Faury P, Graciet J C, Mourier N, Chermann J C & Kraus J L (1994) Inhibition of human immunodeficiency virus type 1 replication by phosphonoformate- and phosphonoacetate-2′,3′-dideoxy-3′-thiacytidine conjugates. J. Med. Chem. 37:2216–2223). In a third system, the effect of analogs on the replication of HIV-1NL4-3 was determined via the InterCompany Consortium consensus p24 assay as previously described (Jadhav P K & MacKay M F (1997) Cyclic urea amide: HIV-1 protease inhibitors with low nanomolar potency against both wild types and protease inhibitor resistant mutants of HIV. J. Med. Chem. 40:181–190). Recombinant viruses were recovered by transfecting the appropriate NL4-3 plasmid by lipofection. Virus stocks recovered 7 to 10 days post-transfection were titered on MT-4 cells to determine if the dilution produced 1,000 to 3,000 ng p24 in 4 days. This dilution was then used in drug susceptibility assays, where drug was added 24 h post infection of cells, and p24 quantified by ELISA 3 days later.

[8] abbreviates: Table 2, read-out: Cytotoxicity in different cells (IC50, μM) CEM.
Where [9] appears, read: Table 2, read-out: Cytotoxicity in different cells (IC50, μM) HepG2.
Where [10] appears, read: Table 2, read-out: Anti-HIV-1 activity in different cells (EC90, μM) PBM.
[11] abbreviates: Table 2, read-out: Cytotoxicity in different cells (IC50, μM) PBM.
Setting [12] is: Table 2, read-out: Cytotoxicity in different cells (IC50, μM) MT-2.
Setting [13] is: Table 2, read-out: Cytotoxicity in different cells (IC50, μM) Vero.
Setting [14] is: Table 1, read-out: Cytotoxicity in different cells (IC50, μM) CEM.
Setting [15] is: Table 1, read-out: Cytotoxicity in different cells (IC50, μM) HepG2.
Setting [16] is: Table 1, read-out: Anti-HIV-1 activity in different cells (EC90, μM) PBM.
[17] abbreviates: Table 1, read-out: Cytotoxicity in different cells (IC50, μM) PBM.
The mark [18] stands for this setting: Table 1, read-out: Cytotoxicity in different cells (IC50, μM) MT-2.
Setting [19] is: Table 1, read-out: Cytotoxicity in different cells (IC50, μM) Vero.

Read-outs that look alike come from different tables or passages of the source.

For orientation: IC50 means the concentration needed to halve the response being measured. Broadly, the EC90 is the concentration needed for an effect of 90%. `COc1ccccc1C(=O)Nc1nc(=O)n([C@H]2C=C[C@@H](CO)O2)cc1F` [Compound 44, β-D-N^4-o-Anisoyl-2,3′-didehydro-2,3-dideoxy-5-fluorocytidine]: the IC50 in series [1] (setting [8]) is 3.9 µM; in series [2] (setting [9]), 3.4 µM; in series [4] (setting [11]), 13.1 µM; in series [5] (setting [12]), above 50 µM; in series [6] (setting [13]) it was 5.6 µM. Moreover, the EC90 in series [3] (setting [10]) is 14.6 µM; in series [7] (Table 2), above 50 µM.
Regarding `Cc1ccccc1C(=O)Nc1nc(=O)n([C@H]2CC[C@@H](CO)O2)cc1F` [Compound 24, β-D-2′,3′-Dideoxy-5-fluoro-N^4-o-toluoylcytidine], the IC50 is 22.5 µM in series [1] (setting [14]); above 100 µM in series [2] (setting [15]); 20.6 µM in series [4] (setting [17]); above 50 µM in series [5] (setting [18]); 39.6 µM in series [6] (setting [19]). Moreover, the EC90 in series [3] (setting [16]) came to 1.2 µM; in series [7] (Table 1) it was 6.8 µM.
For `CCCCCCC(=O)Nc1nc(=O)n(C2C=CC(CO)O2)cc1F` [Compound 59, β-D-2′,3′-Didehydro-2′,3′-dideoxy-5-fluoro-N^4-heptanoylcytidine], in series [5] (setting [12]), the IC50 was determined as 6.2 µM. The EC90 in series [7] (Table 2) is 0.23 µM.
Regarding `O=C(Nc1nc(=O)n([C@H]2CC[C@@H](CO)O2)cc1F)c1ccccc1` [Compound 21, β-D-N^4-Benzoyl-2′,3′-dideoxy-5-fluorocytidine], the concentration for half-maximal inhibition (IC50) in series [1] (setting [14]) turned out to be 38.5 µM; in series [2] (setting [15]), 15.3 µM; in series [4] (setting [17]), 67 µM; in series [5] (setting [18]), 19 µM; in series [6] (setting [19]), 5.8 µM. The EC90 turned out to be 1.29 µM in series [3] (setting [16]) and 1.2 µM in series [7] (Table 1).
On to `Cc1ccccc1C(=O)Nc1nc(=O)n([C@H]2C=C[C@@H](CO)O2)cc1F` [Compound 50, β-D-2′,3′-Didehydro-2′,3′-dideoxy-5-fluoro-N^4-o-toluoylcytidine], for which the IC50 is 46.4 µM in series [1] (setting [8]); above 100 µM in series [2] (setting [9]); 58.4 µM in series [4] (setting [11]); above 50 µM in series [5] (setting [12]); above 100 µM in series [6] (setting [13]). The EC90 is 56.8 µM in series [3] (setting [10]) and above 50 µM in series [7] (Table 2).
On to `O=C(Nc1nc(=O)n([C@H]2CC[C@@H](CO)O2)cc1F)c1cccnc1` [Compound 31, β-D-2′,3′-Dideoxy-5-fluoro-N^4-(nicotinoyl)cytidine], for which the IC50 in series [1] (setting [14]) is 5.5 µM; in series [2] (setting [15]) it was 19.4 µM; in series [4] (setting [17]), 8.8 µM; in series [5] (setting [18]), above 50 µM; in series [6] (setting [19]), 28.1 µM. Besides, the EC90 in series [3] (setting [16]) amounted to 0.17 µM; in series [7] (Table 1) it was 5.9 µM.
`O=C(Nc1nc(=O)n([C@H]2C=C[C@@H](CO)O2)cc1F)c1cc2ccccc2s1` [Compound 56, β-D-2′,3′-Didehydro-2′,3′-dideoxy-5-fluoro-N-(benzo[b]thiophene-2-carbonyl)cytidine]: the IC50 is 2.8 µM in series [1] (setting [8]); 1.3 µM in series [2] (setting [9]); 2.2 µM in series [4] (setting [11]); above 50 µM in series [5] (setting [12]); 5.6 µM in series [6] (setting [13]). In addition, the EC90 was 0.29 µM in series [3] (setting [10]) and 0.3 µM in series [7] (Table 2).
Regarding `COc1ccc(C(=O)Nc2nc(=O)n([C@H]3CC[C@@H](CO)O3)cc2F)cc1` [Compound 17, β-D-N^4-p-Anisoyl-2′,3′-dideoxy-5-fluorocytidine], the IC50 in series [1] (setting [14]) was 31.6 µM; in series [2] (setting [15]), 4.5 µM; in series [4] (setting [17]), 69.2 µM; in series [5] (setting [18]), 16 µM; in series [6] (setting [19]), 5.3 µM. For the same molecule, the figures for the EC90 in series [3] (setting [16]) and in series [7] (Table 1) were 8.31 µM and 6 µM, respectively.
As to `COc1cccc(C(=O)Nc2nc(=O)n([C@H]3C=C[C@@H](CO)O3)cc2F)c1` [Compound 43, β-D-N^4-m-Anisoyl-2′,3′-didehydro-2′,3′-dideoxy-5-fluorocytidine], the IC50 in series [1] (setting [8]) is 24.6 µM; in series [2] (setting [9]), above 100 µM; in series [4] (setting [11]), 18.5 µM; in series [5] (setting [12]), above 50 µM; in series [6] (setting [13]) it was above 100 µM. Further, the EC90 in series [3] (setting [10]) was found to be 2.1 µM; in series [7] (Table 2) it was 0.34 µM.
On to `CCCC(=O)Nc1nc(=O)n([C@H]2CC[C@@H](CO)O2)cc1F` [Compound 34, β-D-N^4-Butyryl-2′,3′-dideoxy-5-fluorocytidine], for which the IC50 in series [1] (setting [14]) came out at 31.6 µM; in series [2] (setting [15]), 7.6 µM; in series [4] (setting [17]), 17.1 µM; in series [5] (setting [18]) it was 7.2 µM; in series [6] (setting [19]) it was 5.8 µM. For the same molecule, the values for the EC90 in series [3] (setting [16]) and in series [7] (Table 1) were 1.6 µM and 0.71 µM, respectively.
On to `O=C(Nc1nc(=O)n([C@H]2CC[C@@H](CO)O2)cc1F)c1ccccc1[N+](=O)[O-]` [Compound 20, β-D-2′,3′-Dideoxy-5-fluoro-N^4-(2-nitrobenzoyl)cytidine], for which the IC50 is above 100 µM in series [1] (setting [14]); above 100 µM in series [2] (setting [15]); above 100 µM in series [4] (setting [17]); above 50 µM in series [5] (setting [18]); above 100 µM in series [6] (setting [19]). In addition, the EC90 is 1.5 µM in series [3] (setting [16]) and 0.7 µM in series [7] (Table 1).
Consider `O=C(Nc1nc(=O)n([C@H]2C=C[C@@H](CO)O2)cc1F)c1ccc([N+](=O)[O-])cc1` [Compound 45, β-D-2′,3′-Didehydro-2′,3′-dideoxy-5-fluoro-N^4-(4-nitrobenzoyl)cytidine], for which the IC50 in series [1] (setting [8]) was 4.2 µM; in series [2] (setting [9]), 5.6 µM; in series [4] (setting [11]) it was 3.4 µM; in series [5] (setting [12]), above 50 µM; in series [6] (setting [13]), 6.6 µM. Also, the EC90 worked out at 1.7 µM in series [3] (setting [10]) and 0.29 µM in series [7] (Table 2).
Turning to `O=C(Nc1nc(=O)n([C@H]2C=C[C@@H](CO)O2)cc1F)c1cccs1` [Compound 54, β-D-2′,3′-Didehydro-2′,3′-dideoxy-5-fluoro-N^4-(2-thiophenecarbonyl)cytidine], the IC50 is 3.9 µM in series [1] (setting [8]); 2.3 µM in series [2] (setting [9]); 10.2 µM in series [4] (setting [11]); above 50 µM in series [5] (setting [12]); 4.8 µM in series [6] (setting [13]). Also, the EC90 in series [3] (setting [10]) was 1.6 µM; in series [7] (Table 2) it was 1.5 µM.
Regarding `O=C(Nc1nc(=O)n([C@H]2C=C[C@@H](CO)O2)cc1F)c1ccccc1[N+](=O)[O-]` [Compound 47, β-D-2′,3′-Didehydro-2′,3′-dideoxy-5-fluoro-N^4-(2-nitrobenzoyl)cytidine], the IC50 is above 100 µM in series [1] (setting [8]); above 100 µM in series [2] (setting [9]); 80 µM in series [4] (setting [11]); above 50 µM in series [5] (setting [12]); above 100 µM in series [6] (setting [13]). Besides, the figures for the EC90 in series [3] (setting [10]) and in series [7] (Table 2) were 39.9 µM and above 50 µM, respectively.
Take `O=C(Nc1nc(=O)n([C@H]2CC[C@@H](CO)O2)cc1F)c1ccco1` [Compound 29, β-D-2′,3′-Dideoxy-5-fluoro-N^4-(2-furoyl)cytidine]: the IC50 in series [1] (setting [14]) was 5.7 µM; in series [2] (setting [15]), 31.1 µM; in series [4] (setting [17]), 16.9 µM; in series [5] (setting [18]), above 50 µM; in series [6] (setting [19]), 29.6 µM. In addition, the EC90 in series [3] (setting [16]) is 1.5 µM; in series [7] (Table 1) it was 0.9 µM.
